Like-named read-outs stand apart in the source and are kept apart here. Where a SMILES comes first, the peptide text is derived from it. [ ]: non-standard residue; d: D form. The star is where a group is joined. Hexanoyl = CCCCCC(=O)*; Ahx = NCCCCCC(=O)O
Key:
[1] = tested on: Rat primary cortical neuron cultures; type: cell-based; details: for Significance of neuroprotection vs 1 uM LPS: 24 h LPS
Rat hippocampal neurons [2] = assay: Neurite outgrowth assay; type: cell-based
[3] = tested on: THP1-differentiated macrophages; type: cell-based, human; design: key to Significant reduction in IL-6 / Significant reduction in TNF-α / Significant reduction in IL-1β: NS: indicates a non-significant reduction in the indicated cytokine; +: indicates a p value<0.05 in Tukey post test; ++: indicates a p value<0.01 in Tukey post test; details: for Significant reduction in IL-1β / Significant reduction in IL-6 / Significant reduction in TNF-α: 24 hrs LPS
[4] = tested on: LPS-induced cognitive deficit in CD-1 mice; assay: Rodent LPS model of brain inflammation, T-maze spontaneous alternation; type: in vivo, mouse; details: for Recovery (%) / Spontaneous alternation (%) Mean: LPS 250 μg/kg
[5] = tested on: pulmonary LPS-stimulated rats; assay: Cytokine expression in BALF supernatant (multiplex immunoassay), LPS acute pulmonary inflammation; type: in vivo, rat; details: 3 mg/kg IP
[6] = tested on: pulmonary LPS-stimulated rats; assay: Immune cell infiltration in BALF, LPS acute pulmonary inflammation; type: in vivo, rat; details: rat, in vivo
[7] = tested on: bleomycin-induced pulmonary fibrosis in C57BL/6 mice; assay: Bleomycin-induced pulmonary fibrosis; type: in vivo, mouse
Rat hippocampal neurons [8] = assay: Synaptogenesis assay; type: cell-based
[9] = 100 mg/kg po BID, right lung homogenate

CCCCCC(=O)N[C@@H](Cc1ccc(O)cc1)C(=O)N[C@H](C(=O)NCCCCCC(N)=O)[C@@H](C)CC [A19 active metabolite, N-hexanoic-Tyr-Ile-(6)aminohexanoic amide] (Hexanoyl-Tyr-Ile-[Ahx]-NH2)
Significance of neuroprotection vs 1 uM LPS ([1]; 0.1 nM): +++ (+++ indicates p<0.001) | Significance of neuroprotection vs 1 uM LPS ([1]; 1 nM): ++ (++ indicates p<0.01) | Significance of neuroprotection vs 1 uM LPS ([1]; 10 nM): +++ (+++ indicates p<0.001) | Significance of neuroprotection vs 1 uM LPS ([1]; 100 nM): ++ (++ indicates p<0.01) | Significance of neuroprotection vs 1 uM LPS ([1]; 1 μM): ++ (++ indicates p<0.01) | protection of primary neurons from LPS-stimulated inflammatory toxicity ([1]; at at least one dose tested): protected primary neurons from LPS-stimulated inflammatory toxicity | neurite length / extension of neurites (in words) (Rat hippocampal neurons [2]): promoted the extension of neurites | Significant increase in: Neurite length (Rat hippocampal neurons [2]; 10 nM, Table 3 study): ++++ (++++ = p < 0.0001) | Significant reduction in IL-1β ([3]; 0.1 nM): NS | Significant reduction in IL-6 ([3]; 0.1 nM): NS | Significant reduction in TNF-α ([3]; 0.1 nM): NS | Significant reduction in IL-1β ([3]; 10 nM): ++ (indicates a p value<0.01 in Tukey post test) | Significant reduction in IL-6 ([3]; 10 nM): + (indicates a p value<0.05 in Tukey post test) | Significant reduction in TNF-α ([3]; 10 nM): + (indicates a p value<0.05 in Tukey post test) | Significant reduction in IL-1β ([3]; 1000 nM): + (indicates a p value<0.05 in Tukey post test) | Significant reduction in IL-6 ([3]; 1000 nM): ++ (indicates a p value<0.01 in Tukey post test) | Significant reduction in TNF-α ([3]; 1000 nM): ++ (indicates a p value<0.01 in Tukey post test) | expression of IL-1β (in words) ([3]; at at least one tested dose): significantly reduced the expression of IL-1β and TNF-α | expression of IL-6 (in words) ([3]; at at least one tested dose): significantly reduced the expression of IL-6 | expression of TNF-α (in words) ([3]; at at least one tested dose): significantly reduced the expression of IL-1β and TNF-α

CC12CC3CC(C)(C1)CC(N)(C3)C2 [Memantine, reference compound]
Recovery (%) ([4]; 0.1 mg/kg i.p. 14 days): 76% | Spontaneous alternation (%) Mean ([4]; 0.1 mg/kg i.p. 14 days): 63.6% | Spontaneous alternation (%) Mean ([4]; 0.1 mg/kg i.p. 14 days, listed as memantine): 64% | Recovery (%) ([4]; 1 mg/kg i.p. 14 days): 38% | Spontaneous alternation (%) Mean ([4]; 1 mg/kg i.p. 14 days): 54.3% | Spontaneous alternation (%) Mean ([4]; 1 mg/kg i.p. 14 days, listed as memantine): 54% | significance of reversal of LPS-induced cognitive deficit (in words) ([4]; T-maze): significant at both doses

C[C@@H]1C[C@H]2[C@@H]3CCC4=CC(=O)C=C[C@]4(C)[C@@]3(F)[C@@H](O)C[C@]2(C)[C@@]1(O)C(=O)CO [Dex, Dexamethasone]
CCL2, significant change in expression in BALF supernatant [5]: + (+ = Significant change in cytokine quantification, p < 0.05 by Student's T-test.) | CCL3, significant change in expression in BALF supernatant [5]: + (+ = Significant change in cytokine quantification, p < 0.05 by Student's T-test.) | CCL5, significant change in expression in BALF supernatant [5]: + (+ = Significant change in cytokine quantification, p < 0.05 by Student's T-test.) | CCL11, significant change in expression in BALF supernatant [5]: + (+ = Significant change in cytokine quantification, p < 0.05 by Student's T-test.) | CX3CL1, significant change in expression in BALF supernatant [5]: + (+ = Significant change in cytokine quantification, p < 0.05 by Student's T-test.) | CXCL1, significant change in expression in BALF supernatant [5]: + (+ = Significant change in cytokine quantification, p < 0.05 by Student's T-test.) | CXCL5, significant change in expression in BALF supernatant [5]: + (+ = Significant change in cytokine quantification, p < 0.05 by Student's T-test.) | CXCL10, significant change in expression in BALF supernatant [5]: + (+ = Significant change in cytokine quantification, p < 0.05 by Student's T-test.) | EGF, significant change in expression in BALF supernatant [5]: + (+ = Significant change in cytokine quantification, p < 0.05 by Student's T-test.) | IFN-γ, significant change in expression in BALF supernatant [5]: + (+ = Significant change in cytokine quantification, p < 0.05 by Student's T-test.) | IL-1α, significant change in expression in BALF supernatant [5]: + (+ = Significant change in cytokine quantification, p < 0.05 by Student's T-test.) | IL-1β, significant change in expression in BALF supernatant [5]: + (+ = Significant change in cytokine quantification, p < 0.05 by Student's T-test.) | IL-5, significant change in expression in BALF supernatant [5]: + (+ = Significant change in cytokine quantification, p < 0.05 by Student's T-test.) | IL-6, significant change in expression in BALF supernatant [5]: + (+ = Significant change in cytokine quantification, p < 0.05 by Student's T-test.) | IL-10, significant change in expression in BALF supernatant [5]: + (+ = Significant change in cytokine quantification, p < 0.05 by Student's T-test.) | IL-12p70, significant change in expression in BALF supernatant [5]: + (+ = Significant change in cytokine quantification, p < 0.05 by Student's T-test.) | IL-13, significant change in expression in BALF supernatant [5]: + (+ = Significant change in cytokine quantification, p < 0.05 by Student's T-test.) | IL-17A, significant change in expression in BALF supernatant [5]: + (+ = Significant change in cytokine quantification, p < 0.05 by Student's T-test.) | TNF-α, significant change in expression in BALF supernatant [5]: + (+ = Significant change in cytokine quantification, p < 0.05 by Student's T-test.) | Neutrophils in BALF, reduction vs disease control [6]: +++ (key: + = >5% reduction in cell count vs disease control; ++ = >25% reduction in cell count vs disease control; +++ = >75% reduction in cell count vs disease control) | Total Leukocytes in BALF, reduction vs disease control [6]: +++ (key: + = >5% reduction in cell count vs disease control; ++ = >25% reduction in cell count vs disease control; +++ = >75% reduction in cell count vs disease control)

C[C@]12CCC(=O)C[C@@H]1CC[C@@H]1[C@@H]2CC[C@]2(C)[C@@H](O)CC[C@@H]12 [DHT, alpha-dihydrotestosterone, reference compound]
Significant increase in: Neurite length (Rat hippocampal neurons [2]): + (key: NS = not significant; + = p < 0.05; ++++ = p < 0.0001)

Cc1ccc(=O)n(-c2ccccc2)c1 [Pirfenidone, reference compound]
Right Lung Weight, improvement versus disease control ([7]; 100 mg/kg po BID, day 21): + (+ => 5-25% improvement v disease control) | Collagen, improvement versus disease control [7, 9]: ++ (++ => 26-50% improvement v disease control) | TGF-Beta, improvement versus disease control [7, 9]: +++ (+++ => 51-100% improvement v disease control) | protection against bleomycin-induced increases in TGF-β (in words) ([7]; all doses, day 21): significantly protected against bleomycin-induced increases in TGF-β | protection against body weight loss (in words) ([7]; all treatment groups): did not protect against body weight loss

HGF: hepatocyte growth factor, used as a positive control at 5 ng/ml
neurite length / extension of neurites (in words) (Rat hippocampal neurons [2]): increase both neurite length and synapse count | Significant increase in: Neurite length (Rat hippocampal neurons [2]; 5 ng/ml, Table 4 study): +++ (+++ = p < 0.0005) | synapse counts (in words) (Rat hippocampal neurons [8]): increase both neurite length and synapse count | Significant increase in: Synapses (Rat hippocampal neurons [8]; 5 ng/ml, Table 4 study): ++++ (++++ = p < 0.0001)

Reference: patent US20250161308A1, “Methods of Treating Covid-Related Disorders” (priority 2022, published 2025)
